Patent EP3513780A1, “METHOD FOR SUPPORTING EPIDERMAL STEM CELL SELF-RENEWAL” (DSM IP Assets B.V., priority 2018, dated 2019)

How the values were obtained:
LCE3D = test: Gene expression (qPCR) in NHEK: LCE3D; type: cell-based, human; conditions: 24 hours, 0.1 mM (Vitamin B12 0.03 mM), normalized to HPRT1, n.s. = not statistically significant
Method: (§1) Vitamin B2, 0.1 mM • 2. D-panthenol, 0.1 mM • 3. Pyridoxine HCl, 0.1 mM • 4. Vitamin B12, 0.03mM • 5. Niacinamide, 0.1 mM • 6. Folic Acid, 0.1 mM
(§2) All Test Materials were diluted in DermaLife K medium.
(§3) Fresh media replacements were performed every other day.
(§4) OpenArray format. […] Each gene was assayed in duplicate.
(§5) See the Endogenous Control Selection section for more details. Unpaired t-tests were carried out using StatMiner software.

KRT1 = test: Gene expression (qPCR) in NHEK: KRT1; type: cell-based, human; conditions: 24 hours, 0.1 mM (Vitamin B12 0.03 mM), normalized to HPRT1, n.s. = not statistically significant
Method: as §1, §2, §3, §4, §5

KRT10 = test: Gene expression (qPCR) in NHEK: KRT10; type: cell-based, human; conditions: 24 hours, 0.1 mM (Vitamin B12 0.03 mM), normalized to HPRT1, n.s. = not statistically significant
Method: as §1, §2, §3, §4, §5

hsa-miR-203 = test: microRNA expression (qPCR) in NHEK: hsa-miR-203; conditions: for Changes in microRNA Expression of hsa-miR-203 (linear fold-change): 24 hours, 0.1 mM (Vitamin B12 0.03 mM), vs Control group, normalized to RNU44, N=4, negative = decrease
Method: (§6) The study was conducted to understand how different vitamin B supplements influence microRNA and mRNA gene expression in keratinocytes. MicroRNAs are small, non-coding RNA molecules that function as negative regulators of gene expression. […] The current study was performed using normal human epidermal keratinocytes [NHEK].
as §2
(§7) An initial cytotoxicity screening was performed to evaluate a range of Test Material concentrations prior to the microRNA analysis. […] Pyridoxine HCl, 0.1 mM • 4. Vitamin B12, 0.03mM • 5. Niacinamide, 0.1 mM • 6.
(§8) Unpaired t-tests (p<0.05, N=4) were performed to compare each Test Material group to the Control group. […] An endogenous control microRNAs (RNU44) was used for normalization.
as §1, §3
(§9) The preamplification reaction was run for 12 cycles.
(§10) qPCR Processing: qPCR reactions were run using validated Taqman® MicroRNA assays in a Custom OpenArray format. […] Each microRNA was assayed in duplicate.
(§11) Unpaired t-tests were carried out using StatMiner software.

KLK7 = test: Gene expression (qPCR) in NHEK: KLK7; type: cell-based, human; conditions: 24 hours, 0.1 mM (Vitamin B12 0.03 mM), normalized to HPRT1, n.s. = not statistically significant
Method: as §1, §2, §3, §4, §5

hsa-miR-720 = test: microRNA expression (qPCR) in NHEK: hsa-miR-720; conditions: 24 hours, 0.1 mM (Vitamin B12 0.03 mM), vs Control group, normalized to RNU44, N=4, negative = decrease
Method: as §6, §2, §7, §8, §1, §3, §9, §10, §11

SPINK5 = test: Gene expression (qPCR) in NHEK: SPINK5; type: cell-based, human; conditions: 24 hours, 0.1 mM (Vitamin B12 0.03 mM), normalized to HPRT1, n.s. = not statistically significant
Method: as §1, §2, §3, §4, §5

CALML5 = test: Gene expression (qPCR) in NHEK: CALML5; type: cell-based, human; conditions: 24 hours, 0.1 mM (Vitamin B12 0.03 mM), normalized to HPRT1, n.s. = not statistically significant
Method: as §1, §2, §3, §4, §5

TP63 = test: Gene expression (qPCR) in NHEK: TP63; conditions: for Linear Fold-Change Value, Each Group vs the Untreated Control: TP63: 24 hours, 0.1 mM (Vitamin B12 0.03 mM), normalized to HPRT1, n.s. = not statistically significant
Method: Cell Culture, Cytotoxicity Screening: NHEK [purchased from Lifeline Cell Technologies] were cultured and maintained at 37°C with 5% CO2 using DermaLife K medium according to the manufacturer's recommendations. Two days prior to treatment, NHEK were seeded at a density of -20,000 cells per cm^2 in 24-well plates. Cultures were approximately 75% confluent at the time of treatment.
Stock solutions and final working concentrations of each Test Material were prepared: The following treatment groups were included in the study (N=4): • 1. Vitamin B2, 0.1 mM • 2. D-panthenol, 0.1 mM • 3. Pyridoxine HCl, 0.1 mM • 4. Vitamin B12, 0.03mM • 5. Niacinamide, 0.1 mM • 6. Folic Acid, 0.1 mM
All Test Materials were diluted in DermaLife K medium. NHEK cultured in DermaLife K medium without added supplements served as the Control group.
Treatment and Maintenance of Cultures: Maintenance medium (DermaLife K) was removed from each culture well and replaced with 500 µL (for 24-well cytotoxicity screening) or 2.0 mL (for 6-well gene expression screening) prewarmed Test Medium. Following application of Test Media, the cultures were returned to the incubator at 37°C with 5 % CO2 for 24 hours.
Treatment and Collection of Cell Culture for Gene Expression: Cultures were seeded at a concentration of 20,000 cells/cm^2 in a 6-well plate and incubated for three days at 37°C with 5 % CO2. Fresh media replacements were performed every other day. On the day of treatment, maintenance medium was replaced with test medium. Following a 24 hour exposure, test medium was removed and cell lysis was performed through the addition of 700uL Qiazol lysis buffer (Qiagen) to each well. Cell lysates were immediately collected and stored at -80°C.
RNA Isolation: Total RNA was isolated from frozen cell lysates using a Qiagen miRNeasy Mini kit following the manufacturer's instructions for cultured cells. Total RNA concentration and purity were determined using a Nanodrop 2000 spectrophotometer.
OpenArray format. OpenArrays were run in a Life Technologies QuantStudio 12K Flex instrument. Each gene was assayed in duplicate.
Data Analysis: qPCR data was imported into RealTime StatMiner software v4.2 for statistical analysis using the relative quantitation (RQ) method. […] Unpaired t-tests were carried out using StatMiner software. Statistically significant changes in gene expression (p<0.05) are reported. Linear fold-change data for each subject was calculated using Microsoft Excel.For RQ values >1.0: Linear fold-change value = RQ value For RQ values < 1.0:Linear ford−change value = −1/RQ value [formula]
Statistical Data Analysis Using Statminer Software: qPCR data is typically expressed in log scale and then converted to a linear fold change value. A log10RQ value of 1.0 is equivalent to a 10-fold change in gene expression. A log10RQ value of 0.3 is equivalent to a 2-fold change in gene expression. The log10RQ values have been converted to linear fold change values to simplify data interpretation.

Row | Compound | Linear Fold-Change Value, Each Group vs the Untreated Control: LCE3D (LCE3D) | Linear Fold-Change Value, Each Group vs the Untreated Control: KRT1 (KRT1) [fold] | Linear Fold-Change Value, Each Group vs the Untreated Control: KRT10 (KRT10) | Changes in microRNA Expression of hsa-miR-203 (linear fold-change) (hsa-miR-203) [fold] | Linear Fold-Change Value, Each Group vs the Untreated Control: KLK7 (KLK7) | Changes in microRNA Expression of hsa-miR-720 (linear fold-change) (hsa-miR-720) [fold] | Linear Fold-Change Value, Each Group vs the Untreated Control: SPINK5 (SPINK5) | Linear Fold-Change Value, Each Group vs the Untreated Control: CALML5 (CALML5) [fold] | Linear Fold-Change Value, Each Group vs the Untreated Control: TP63 (TP63) [fold] | fold induction at 100 µM (hsa-miR-203; Homo sapiens, 24 h, read-out: Changes in microRNA Expression of hsa-miR-203 (linear fold-change)) | fold induction at 100 µM (TP63; Homo sapiens, 24 h, read-out: Linear Fold-Change Value, Each Group vs the Untreated Control: TP63)
1 | Cc1cc2nc3c(=O)[nH]c(=O)nc-3n(C[C@H](O)[C@H](O)[C@H](O)CO)c2cc1C [Vitamin B2, riboflavin] | 1.60 fold | -4.00 | -2.50 fold | -1.96 | -2.03 fold | -1.93 | n.s. | -1.24 | 1.34 | – | –
2 | cobalamin [Vitamin B12] | -1.65 fold | -2.42 | n.s. | -1.46 | n.s. | -2.10 | -1.63 fold | -1.73 | – | – | –
3 | CC(C)(CO)[C@@H](O)C(=O)NCCCO [D-Panthenol, (+)-(R)-2,4-Dihydroxy-N-(3-hydroxypropyl)-3,3-dimethylbutyramid] | -1.99 fold | -4.68 | -2.26 fold | -1.76 | -1.60 fold | -2.21 | -2.00 fold | -1.87 | 1.54 | – | –
4 | Nc1nc2ncc(CNc3ccc(C(=O)N[C@@H](CCC(=O)O)C(=O)O)cc3)nc2c(=O)[nH]1 [Folic acid] | -1.72 fold | -3.27 | -1.73 fold | -1.46 | -1.41 fold | -1.64 | -1.79 fold | -1.67 | 1.43 | – | –
5 | Cc1ncc(CO)c(CO)c1O.Cl [Pyridoxine HCl] | n.s. | -4.56 | -2.45 fold | -1.78 | -1.44 fold | -1.84 | -2.05 fold | -1.90 | 1.55 | – | –
6 | NC(=O)c1cccnc1 [Niacinamide, nicotinamide] | – | – | n.s. | – | n.s. | – | n.s. | – | – | 1.03 | 1.21
